Measured values: publication PMC10444862, “Using macromolecular electron densities to improve the enrichment of active compounds in virtual screening” (Communications Chemistry, 2023)

Biological target: SARS-COV-2 3CLpro (having a P132H mutation, 3CLpro^P132H) (Severe acute respiratory syndrome coronavirus 2, UniProt P0DTD1, P3395H)
Format: biochemical

Row | SMILES | Inhibition Rate ([Cpd.]=40 uM)
1 | O=C(CSc1nc(-c2ccccc2F)nc2c1cnn2-c1ccccc1)NC1CC1 [E23, O=C(CSc1nc(-c2ccccc2F)nc2c1cnn2-c1ccccc1)NC1CC1] | < 0.5
2 | COc1ccc(N2C(=O)C3C(Cc4c[nH]c5ccccc45)NC4(C(=O)Nc5ccccc54)C3C2=O)cc1 (centres unmarked) [E24, COc1ccc(N2C(=O)C3C(Cc4c[nH]c5ccccc45)NC4(C(=O)Nc5ccccc54)C3C2=O)cc1] | < 0.5
